Experimental data published in patent publication US7871635B2, “Use of compound that inactivates protein kinase A in a composition containing a cosmetically acceptable medium for lightening the skin” (Societe d'Exploitation de Produits pour les Industries …, priority 2002, dated 2011).

Legend:
[1] = test system: Adenylate cyclase; assay: Study of adenylate cyclase activation (ATP to cAMP, radioimmunological assay); format: biochemical, rat; conditions: 1 mg/ml; for Enzymatic activity relative to the control (adenylate cyclase): forskolin 10 μM, ATP 0.5 mM, 30 minutes at 30° C.
Protocol: The influence of N-undecylenoylphenylalanine, kojic acid and arbutin on the conversion of ATP into cAMP was compared via a radioimmunological assay.
Adenylate cyclase, which converts ATP into cAMP, is extracted from rat brains via the method described in “Salamon Y., Londos C. and Rodbell M.; Anal. Biochem., 58, 1974, 541-548”; it is then activated with 10 μM of forskolin.
They are each tested separately at a concentration of 1 mg/ml. Sodium hydroxide has no effect on the parameter studied.
The activated enzyme is incubated, in the presence or absence of these products, and in the presence of 0.5 mM of ATP, for 30 minutes at 30° C.
Control cultures are incubated, in the absence of product, and in the presence of ATP. Each test is performed in triplicate.
After incubation for 30 minutes, the amount of cAMP produced is evaluated via a radioimmunological assay performed using a commercial kit; the radioactivity is measured with a scintillation counter (Topcount, Packard), a small radioactivity count reflecting small activation of adenylate cyclase.
The results given in the table below are the means of the three tests performed for each of the products. They are expressed as a percentage of enzymatic activity relative to the control group and as a percentage of inhibition.

[2] = test system: Protein kinase A; assay: Study of protein kinase A activity (phosphorylation of histone H1); format: biochemical, bovine; conditions: 1 mg/ml; for Enzymatic activity relative to the control (protein kinase A): cAMP 3 μM, histone H1 200 μg/ml, 20 minutes at 30° C.
Protocol: The influence of N-undecylenoylphenylalanine, kojic acid and arbutin on the phosphorylation of […] with protein kinase A (PK A) was compared. Protein kinase A is extracted from bovine brains via the method described in: “[…]., Sano M., Hayashi K., Inoue T., Naito […]. Biol. Chem., 265, 1990, 5267-5272”. […] Sodium hydroxide has no effect on the parameter studied. […] Control cultures are incubated, in the absence of product, and in the presence of radioactive ATP and histone H1. Each test is performed in triplicate. […] The results given in the table below are the means of the three tests performed for each of the products. They are expressed as a percentage of enzymatic activity relative to the control group and as a percentage of inhibition.

[3] = test system: tyrosinase; assay: Study of phosphorylated tyrosinase activity (L-tyrosine to dopaquinone, 490 nm); format: biochemical, fungi; conditions: tyrosinase 66.66 IU/ml, tyrosine 0.2 mM, 10 minutes at 37° C.
Protocol: The tyrosinase used is a commercial product extracted from fungi. […] Sodium hydroxide has no effect on the parameter studied. […] Control cultures are incubated, in the absence of product, and in the presence of tyrosinase and L-tyrosine. Each test is performed in triplicate. After incubation for 10 minutes, the amount of dopaquinone […] formed is measured using a spectrophotometer at 490 nm. The results given in the table below are the means of the three tests performed for each of the products. They are expressed as IU/l of tyrosinase activity and as a percentage of inhibition of the enzymatic activity relative to the control.

[4] = test system: endogenous tyrosinase; assay: Phosphorylated tyrosinase activity in B16/F1 melanocyte lysates; format: cell-based, mouse; conditions: 72 hours; for Tyrosinase activity: control 9.8 ± 0.3 IU/ml
Protocol: Mouse melanocytes of the B16/F1 line are inoculated in 96-well culture plates at a density of 1500 cells/well. The cells are cultured in a culture medium (MCM medium) at 37° C. under a humid atmosphere containing 5% CO2. The cells are used at 60% of confluence, i.e. 4 days after inoculation.
The MCM medium has the following composition: DMEM medium (Dulbecco's Modified Eagle's Medium) containing 4.5 g/l of glucose supplemented with L-glutamine (2 mM), penicillin (50 IU/ml), streptomycin (50 μg/ml) and fetal calf serum (10% v/v).
N-Undecylenoylphenylalanine is diluted to 4 mg/ml in decinormal aqueous sodium hydroxide solution. […]
The melanocyte cultures are incubated in the presence of the test product or of the reference products for 72 hours at 37° C., under a humid atmosphere containing 5% CO2.
Control cultures are incubated, in the absence of product, in the MCM medium. These control cultures are prepared on each culture plate.
Each test is performed six times.
After incubation for 72 hours, the second portion of the cell carpet (n=3) is rinsed with PBS. The cells are lyzed with Triton™ X100 at a concentration of 0.1% (w/v) for 30 minutes at room temperature. The activity of the endogenous tyrosinase is evaluated by adding 0.1% (w/v) of L-dopa, followed by incubation for 3 hours at 37° C. in the absence of air and light. The dopaquinone formed by the reaction between the tyrosinase and the L-dopa is measured by spectrophotometry at 450 nm. A calibration range of purified tyrosinase is prepared in parallel.
The results are expressed as IU/ml of tyrosinase activity and as a percentage of inhibition relative to the control group.

[5] = test system: B16/F1 melanocyte cultures; assay: Intracellular protein content (cytotoxicity) in B16/F1 melanocyte cultures; format: cell-based, mouse
Protocol: Mouse melanocytes of the B16/F1 line are inoculated in 96-well culture plates at a density of 1500 cells/well. […] The cells are used at 60% of confluence, i.e. 4 days after inoculation. The MCM medium has the following composition: […] N-Undecylenoylphenylalanine is diluted to 4 mg/ml in decinormal aqueous sodium hydroxide solution. It is tested at 40 μg/ml in the MCM medium. Sodium hydroxide has no effect on the parameters analyzed. […] Given its toxicity, it is not tested at 40 μg/ml. […] Control cultures are incubated, in the absence of product, in the MCM medium. These control cultures are prepared on each culture plate. Each test is performed six times. This assay allows the cytotoxicity of the test products to be evaluated. It is performed in cell lysates prepared as described in the preceding paragraph. The protein assay is performed according to the Coomassie blue method described by: “Bradford M.; Anal. Biochem., 72, 1976, 248-254”. The measurement is performed by spectrophotometry at 640 nm. A bovine serum albumin (BSA) calibration range is prepared in parallel. The results are expressed as mg/ml of proteins and as a percentage of inhibition relative to the control group.

[6] = at 40 μg/ml, 72 hours, control 0.45 ± 0.01
[7] = listed as N-undecylenoylphenylalanine

For `OC[C@H]1O[C@@H](Oc2ccc(O)cc2)[C@H](O)[C@@H](O)[C@@H]1O` [Arbutin, arbutin], the “Inhibition of adenylate cyclase activity” value [1] was 0%, the “Enzymatic activity relative to the control (adenylate cyclase)” value [1] was 109.7 ± 4.6% and the “Inhibition of adenylate cyclase activity” value ([1]; listed as arbutin) was “no effect”. The “Inhibition of protein kinase A activity” value [2] was 9.1%, the “Enzymatic activity relative to the control (protein kinase A)” value [2] was 90.9 ± 8.4% and the “Percentage of inhibition of tyrosinase activity with the test products relative to the control” value ([3]; at 0.1 mg/ml) was 73%. For the same molecule, the “Percentage of inhibition of tyrosinase activity with the test products relative to the control” value ([3]; at 1 mg/ml) was 80%, the “Inhibition of tyrosinase activity” value ([4]; at 40 μg/ml) was 23% and the Tyrosinase activity ([4]; at 40 μg/ml) was 7.6 ± 1.1 IU/ml. For the same molecule, the Total proteins [5, 6] was 0.43 ± 0.01 mg/mL.

`Oc1ccc(O)cc1` [Hydroquinone, hydroquinone] was tested, and the “Percentage of inhibition of tyrosinase activity with the test products relative to the control” value ([3]; at 0.1 mg/ml) was 78%, the “Percentage of inhibition of tyrosinase activity with the test products relative to the control” value ([3]; at 1 mg/ml) was 80% and the “Inhibition of tyrosinase activity” value ([4]; at 5 μg/ml) was 69%. For the same molecule, the Tyrosinase activity ([4]; at 5 μg/ml) was 3.0 ± 0.3 IU/ml, the “Inhibition of protein quantity” value ([5]; mouse, 72 h, 5 μg/ml) was 38% and the Total proteins ([5]; mouse, 72 h, 5 μg/ml) was 0.28 ± 0.01 mg/mL.

With `O=c1cc(CO)occ1O` [Kojic acid, kojic acid] the “Inhibition of adenylate cyclase activity” value [1] was 55%, the “Inhibition of adenylate cyclase activity” value ([1]; listed as kojic acid) was “moderate effect” and the “Inhibition of protein kinase A activity” value [2] was 0%. For the same molecule, the Total proteins ([5]; mouse, 72 h, 40 μg/ml) was 0.41 ± 0.02 mg/mL.

`C=CCCCCCCCCC(=O)NC(Cc1ccccc1)C(=O)O` (centres unmarked) [N-Undecylenoylphenylalanine, N-(ω-undecylenoyl)phenylalanine] was tested, and the “Inhibition of adenylate cyclase activity” value [1] was 100%, the “Enzymatic activity relative to the control (adenylate cyclase)” value [1] was −16.0 ± 0.5% and the “Inhibition of adenylate cyclase activity” value [1, 7] was “total inactivation”. The “Inhibition of protein kinase A activity” value [2] was 100%, the “Enzymatic activity relative to the control (protein kinase A)” value [2] was −0.4 ± 0.3% and the “Inhibition of protein kinase A activity” value [2, 7] was “totally inhibits”. The “Percentage of inhibition of tyrosinase activity with the test products relative to the control” value ([3]; at 0.1 mg/ml) was 80%, the “Percentage of inhibition of tyrosinase activity with the test products relative to the control” value ([3]; at 1 mg/ml) was 100% and the “Inhibition of tyrosinase activity” value ([4]; at 40 μg/ml) was 67%. The Tyrosinase activity ([4]; at 40 μg/ml) was 3.2 ± 0.6 IU/ml, the “Inhibition of protein quantity” value ([5]; at 40 μg/ml, 72 hours) was 17% and the Total proteins [5, 6] was 0.38 ± 0.01 mg/mL.
